Consider 28 molecules from ChEMBL document CHEMBL5360537, “From lead to clinic: A review of the structural design of P2X7R antagonists” (Eur J Med Chem, 2023).

SMILES strings stand for the structures.

Test [1] addresses T1, P2X purinoceptor 7 (Mus musculus, UniProt Q9Z1M0).
T1 sequence (Q9Z1M0 whole entry): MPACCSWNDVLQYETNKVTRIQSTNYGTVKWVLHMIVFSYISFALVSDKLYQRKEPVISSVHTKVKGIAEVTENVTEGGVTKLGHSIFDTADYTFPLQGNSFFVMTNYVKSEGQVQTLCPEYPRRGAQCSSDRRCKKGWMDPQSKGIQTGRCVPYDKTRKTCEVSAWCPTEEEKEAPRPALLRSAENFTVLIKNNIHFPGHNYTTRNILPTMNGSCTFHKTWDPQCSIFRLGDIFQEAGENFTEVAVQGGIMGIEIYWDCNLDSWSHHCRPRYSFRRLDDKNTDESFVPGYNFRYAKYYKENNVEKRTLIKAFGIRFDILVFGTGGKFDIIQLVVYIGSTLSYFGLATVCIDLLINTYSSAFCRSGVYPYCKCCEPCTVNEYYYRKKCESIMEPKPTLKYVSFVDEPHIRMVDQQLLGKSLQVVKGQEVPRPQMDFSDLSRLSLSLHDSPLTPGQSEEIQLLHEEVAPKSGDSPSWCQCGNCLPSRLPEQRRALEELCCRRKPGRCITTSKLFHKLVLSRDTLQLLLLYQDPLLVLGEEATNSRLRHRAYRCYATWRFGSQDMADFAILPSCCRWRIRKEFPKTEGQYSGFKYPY
The test is described as follows: Antagonist activity at mouse P2X7 receptor by calcium flux assay. (A change in cytosolic calcium serves as a functional read-out for many receptors and channels.)

Test [2] concerns the target T2, P2X purinoceptor 7 (Homo sapiens, UniProt Q99572).
T2 sequence (Q99572 whole entry): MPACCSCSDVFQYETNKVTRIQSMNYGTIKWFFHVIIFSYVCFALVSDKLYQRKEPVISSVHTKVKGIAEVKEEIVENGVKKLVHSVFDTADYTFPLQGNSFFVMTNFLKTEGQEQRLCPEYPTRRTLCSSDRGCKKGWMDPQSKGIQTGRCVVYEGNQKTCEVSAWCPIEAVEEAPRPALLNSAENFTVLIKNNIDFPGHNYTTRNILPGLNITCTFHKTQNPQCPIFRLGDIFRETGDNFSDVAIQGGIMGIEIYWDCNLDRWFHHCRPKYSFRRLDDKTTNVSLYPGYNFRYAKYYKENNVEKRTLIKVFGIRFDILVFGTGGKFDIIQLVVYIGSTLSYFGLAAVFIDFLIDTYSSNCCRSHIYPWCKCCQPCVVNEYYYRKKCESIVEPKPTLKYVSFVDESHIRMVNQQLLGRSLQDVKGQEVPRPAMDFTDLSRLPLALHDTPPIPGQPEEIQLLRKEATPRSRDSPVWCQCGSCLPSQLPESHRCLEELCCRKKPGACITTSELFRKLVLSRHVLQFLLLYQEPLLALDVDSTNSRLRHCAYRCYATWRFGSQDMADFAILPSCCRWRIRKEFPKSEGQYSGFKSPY
The test is described as follows: Antagonist activity at human P2X7 receptor by calcium flux assay.

The target in test [3] is T3, P2X purinoceptor 7 (Rattus norvegicus, UniProt Q64663).
T3 sequence (Q64663 whole entry): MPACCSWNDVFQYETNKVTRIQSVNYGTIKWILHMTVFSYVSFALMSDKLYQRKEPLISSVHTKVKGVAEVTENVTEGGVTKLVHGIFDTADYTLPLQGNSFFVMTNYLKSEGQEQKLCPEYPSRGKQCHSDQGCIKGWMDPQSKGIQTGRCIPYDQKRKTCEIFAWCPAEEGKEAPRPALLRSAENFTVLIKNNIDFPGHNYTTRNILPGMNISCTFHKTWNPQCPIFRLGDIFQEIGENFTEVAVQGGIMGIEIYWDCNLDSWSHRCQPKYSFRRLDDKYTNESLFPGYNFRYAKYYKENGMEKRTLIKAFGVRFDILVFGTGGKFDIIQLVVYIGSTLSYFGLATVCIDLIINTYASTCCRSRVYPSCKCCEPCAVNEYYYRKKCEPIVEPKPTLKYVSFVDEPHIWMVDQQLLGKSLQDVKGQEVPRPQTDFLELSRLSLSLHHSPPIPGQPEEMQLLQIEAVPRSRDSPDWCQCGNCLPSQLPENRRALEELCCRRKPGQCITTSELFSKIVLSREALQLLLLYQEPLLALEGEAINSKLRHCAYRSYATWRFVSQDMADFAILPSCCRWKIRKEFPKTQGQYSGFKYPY
The test can be described thus: Antagonist activity at rat P2X7 receptor by calcium flux assay.

Test [4] addresses T2, P2X purinoceptor 7. The test can be described thus: Antagonist activity at human P2X7 receptor.
Test [5] has as its target T2, P2X purinoceptor 7. The test can be described thus: Inhibition of human P2X7 receptor transfected in HEK293 cells by calcium influx assay. Format: cell-based.
The target of test [6] is T2, P2X purinoceptor 7. The test is described as follows: Antagonist activity at human P2X7 receptor expressed in 1321N1 cells by FLIPR assay. It counts as cell-based.
The target in test [7] is T4, P2X purinoceptor 7 (Mus musculus) (UniProt Q9Z1M0).
T4 sequence (whole entry): T1 sequence (Q9Z1M0 whole entry)
The test can be described thus: Antagonist activity at P2X7 receptor in mouse Peritoneal macrophage cells assessed as ATP induced dye uptake at 10 uM relative to control. It counts as cell-based.

The target of test [8] is T2, P2X purinoceptor 7. The test is described as follows: Antagonist activity at human P2X7 receptor expressed in HEK293 by fluorescence plate reader analysis. Format: cell-based.

Broadly, the IC50 is the midpoint of a concentration-inhibition curve. `CC1CC(F)(F)CCN1Cn1c(Cc2c(F)cccc2Cl)noc1=O` (configuration not stated): the 50% inhibitory concentration (IC50) at P2X purinoceptor 7 [1], on P2X purinoceptor 7 [2] and at P2X purinoceptor 7 [3] was less than 200 nM in each case.

Take `O=c1onc(CN2CCC(F)(F)CC2)n1CC1CCC(F)(F)CC1`: the concentration for half-maximal inhibition (IC50) on P2X purinoceptor 7 [1], at P2X purinoceptor 7 [2] and at P2X purinoceptor 7 [3] was more than 10000 nM throughout.

Take `COc1ccc(Nc2nc(=O)c3nn(C)cc3n2Cc2cc(F)c(F)c(F)c2)c(C)c1`: the IC50 on P2X purinoceptor 7 [4] was less than 10 nM.

`CS(=O)(=O)C1CC[C@@](F)(C(=O)NCc2ccc(Cl)cc2Cl)c2cccnc21` (some centres not stated): the IC50 on P2X purinoceptor 7 [5] is less than 50 nM.

With `Cc1ccc(OCCO)cc1Nc1nc(=O)cnn1Cc1cc(F)c(F)c(F)c1`, half-maximal inhibition against P2X purinoceptor 7 [6] (IC50) was put at 9.7 nM.

For orientation: inhibition means the drop in the measured response relative to a control, in per cent. As to `CC1=C(C(C)n2cc(COCc3ccco3)nn2)C(=O)c2ccccc2C1=O` (configuration not stated), the inhibition in test [7] is less than 60%.

Molecule `CCN1C(=O)N=C(Nc2cc(C)c(C)cc2C)N2C1=NCC2c1ccccc1` (configuration not stated) returned an IC50 against P2X purinoceptor 7 [4] of less than 10 nM.

Regarding `COCCn1cc(C(=O)NC[C@@]2(O)CCCC(F)(F)C2)c2c(Cl)cccc21`, the IC50 against P2X purinoceptor 7 [8] is less than 10 nM.

`Cc1c(Cl)cccc1Nc1nc(=O)cc2n1C(c1ccccc1)CO2` (configuration not stated) came in with an IC50 against P2X purinoceptor 7 [4] of less than 10 nM.

For the molecule `CS(=O)(=O)C[C@]1(O)CC[C@@](F)(C(=O)NCc2ccc(Cl)cc2Cl)c2cccnc21`, the IC50 on P2X purinoceptor 7 [5] was less than 50 nM.

Turning to `O=c1onc(Cc2c(F)cccc2Cl)n1CC1CCC(C(F)(F)F)CC1` (configuration not stated), the IC50 at P2X purinoceptor 7 [1], at P2X purinoceptor 7 [2] and on P2X purinoceptor 7 [3] was less than 200 nM each time.

At P2X purinoceptor 7 [8], `CC1CCCC(O)(CNC(=O)c2cn(C3COC3)c3cccc(Cl)c23)C1` (configuration not stated) yielded an IC50 of less than 10 nM.

In turn, `CCOC(C)CNC(=O)c1cn(C2COC2)c2cccc(Cl)c12` (configuration not stated) yielded an IC50 against P2X purinoceptor 7 [8] of more than 1000 nM.

Molecule `CCc1cccc(Nc2nc(=O)c3[nH]cnc3n2Cc2ccc(F)cc2)c1CC` registered an IC50 at P2X purinoceptor 7 [4] of less than 10 nM.

On P2X purinoceptor 7 [8], `COCCn1cc(C(=O)NCc2ccco2)c2c(Cl)cccc21` came in with a 50% inhibitory concentration (IC50) of more than 1000 nM.

`O=c1onc(Cc2ccc(Cl)cc2Cl)n1CC1CCC(F)(F)CC1`: the figures for the IC50 at P2X purinoceptor 7 [1], at P2X purinoceptor 7 [2] and on P2X purinoceptor 7 [3] were 200 nM, less than 200 nM and less than 200 nM, respectively.

For `CC1=C(C(c2ccc(C)cc2)n2cc(COCc3ccco3)nn2)C(=O)c2ccccc2C1=O` (configuration not stated), in test [7], the inhibition is less than 60%.

Turning to `COc1ccc(Cc2noc(=O)n2CC2CCC(F)(F)CC2)cc1`, the IC50 at P2X purinoceptor 7 [1], on P2X purinoceptor 7 [2] and on P2X purinoceptor 7 [3] was 1000 nM in each case.

`COCCn1cc(C(=O)NCc2nc3ccccc3s2)c2c(Cl)cccc21` showed an IC50 on P2X purinoceptor 7 [8] of more than 1000 nM.

Turning to `Cc1ncccc1Cc1noc(=O)n1CC1CCC(F)(F)CC1`, the IC50 on P2X purinoceptor 7 [1] is 1000 nM; at P2X purinoceptor 7 [2], 200 nM; on P2X purinoceptor 7 [3], 1000 nM.

With `Cc1nc2cc(C)c(Nc3nc(=O)c4[nH]cnc4n3Cc3ccc(F)cc3)cc2s1`, the IC50 at P2X purinoceptor 7 [4] amounted to 11 nM.

`COc1cnc(C)c(Nc2nc(=O)c3c(n2Cc2cc(F)c(F)c(F)c2)CCC3)c1`: the midpoint of inhibition against P2X purinoceptor 7 [4], the IC50, lay at 100 nM.

Molecule `Cc1c(Cl)cccc1Nc1nc(=O)cc2n1C(c1ccccc1)COC2` (configuration not stated) returned an IC50 against P2X purinoceptor 7 [4] of 1.8 nM.

`O=c1onc(Cc2c(F)cccc2Cl)n1CC1CCCCCC1`: the IC50 on P2X purinoceptor 7 [1] was 200 nM; on P2X purinoceptor 7 [2] it was less than 200 nM; on P2X purinoceptor 7 [3] it was less than 200 nM.

As to `CC1=C(C(c2ccc(F)cc2)n2cc(COCc3ccco3)nn2)C(=O)c2ccccc2C1=O` (configuration not stated), in test [7], the inhibition was less than 60%.

On to `COc1ccc(C)c(Nc2nc(=O)cnn2Cc2cncc(F)c2)c1`, for which the IC50 against P2X purinoceptor 7 [6] worked out at 100 nM.

Consider `C[C@H]1CCC[C@@](O)(CNC(=O)c2cn(CCC(F)F)c3cccc(Cl)c23)C1`, for which the IC50 on P2X purinoceptor 7 [8] was less than 10 nM.

In the case of `COc1cc(Nc2nc(=O)c(F)cn2Cc2cc(F)c(F)c(F)c2)c(C)c(F)c1OC`, the IC50 on P2X purinoceptor 7 [6] was less than 10 nM.
